{"source": "patent US11590117B2", "about": "“Treatment of a hematologic malignancy with 2-(4-chlorophenyl)-n-((2-(2,6-dioxopiperidin-3-yl)-1-oxoisoindolin-5-yl)methyl)-2,2-difluoroacetamide” (priority 2016, dated 2023)", "key": {"selected AML cell lines": {"tested_on": "selected AML cell lines", "test": "Annexin V/7-AAD flow cytometry apoptosis assay, panel of selected AML cell lines", "format": "cell-based, human", "conditions": "after 24 and 48 hours, in 4 out of the 5 cell lines evaluated", "description": "Cell Apoptosis Assays: The ability of Compound 1 to induce apoptosis was assessed in selected AML cell lines and healthy PBMCs at the time points and compound concentrations indicated. For Annexin V/7-AAD readout by flow cytometry, AML cell lines were plated into flat bottom 96-well plates (BD Falcon) at a seeding density of 0.1 to 0.3×10^6 cells per mL in 200 μL complete media. Compound 1 was dispensed onto the plates and the cells were incubated for the times indicated. For frozen PBMCs, cells were thawed as previously described and plated at a seeding density of 1×10^6 cells per mL in 200 μL on Corning® BioCoat™ T-Cell Activation Anti-Human CD3 96-well plates (Corning Inc., Corning, N.Y.). Compound 1 was dispensed onto the plates and the cells were incubated for the times indicated. […] One hundred microliters of Annexin V/7-AAD buffer was added per well and the cells incubated for 15 minutes before being analyzed using the Attune Flow Cytometer (Life Technologies, Carlsbad, Calif.). For caspase 3/7 activity, the remaining 100 μL was incubated with CellEvent™ Caspase-3/7 Green ReadyProbes® Reagent (1:1000 dilution; Molecular Probes) for 15 minutes before being analyzed using the Attune Flow Cytometer. […]\nCompound 1 Induces Apoptosis in Acute Myeloid Leukemia Cell Lines. […] 0.01 μM and 0.1 μM and apoptosis was assessed over time."}, "[1]": {"tested_on": "Red-labeled AML cell lines", "test": "IncuCyte live cell imaging of cell viability, sub-panel of twelve Red-labeled AML cell lines", "format": "cell-based", "conditions": "Homo sapiens, 96 h", "description": "Derivation of Red-labeled Acute Myeloid Leukemia Cell Lines: Twelve cell lines, including AML-193, HL-60, KG-1, ML-2, MOLM-13, MV-4-11, NOMO-1, OCI-AML2, OCI-AML3, SIG-M5, TF-1, and THP-1, were stably transduced with Red lentivirus. Cells were plated in 6-well plates in growth media, incubated with 8 µg/mL polybrene (EMD Millipore Cat no. TR-1003-G) followed by infection with CellPlayer™ NucLight™ Red-lentiviral particles (Essen Biosciences Cat no. 4478) at a multiplicity of infectivity (MOI) of 0.5 to 2.5 for 24 hours. MOI refers to the ratio of virus particles to cells. Virus-containing media was replaced with fresh growth media and incubated for an additional 24 to 48 hours, followed by selection with Zeocin (500 to 2000 μg/mL), a derivative of bleomycin (Life Technologies-Invitrogen Cat no. R250-01). Cells were selected with fresh Zeocin every 3 to 4 days for 3 to 8 weeks. Cells were periodically viewed using fluorescent microscopy for nuclear-restricted red fluorescence. Zeocin selection was terminated once the population was confirmed to stably fluoresce red. All Red-labeled cell lines were acclimated to EMEM containing 20% FBS, with or without GM-CSF supplementation, allowing for optimal live cell imaging.\nIncubation of Cell Cultures with Compound 1: Compound 1 was provided for studies by Celgene chemistry group at a stock concentration of 30 mM in 20 μL dimethyl sulfoxide (DMSO) frozen. Costar 96-well cell culture plates (Corning Cat no. 3595) were coated with 100 μL of 10 µg/mL fibronectin (Sigma-Aldrich Cat no. F1141) for 4 hours at 37° C. and immediately used or refrigerated overnight for later use. Cells (3000 to 6000 cells) were plated in growth medi in fibronectin-coated 96-well plates and incubated for a minimum of a few hours to overnight. Cells were incubated with a 12-point concentration response in triplicate with Compound 1 ([…]) including DMSO and Media controls. A 3-fold serial dilution of Compound 1 starting from a concentration of 200 μM in 0.6% DMSO (diluted in Media) was performed. For most sensitive cell lines, a 3-fold serial dilution of Compound 1 starting from a concentration of 20 μM in 0.6% DMSO (diluted in media) was performed. A volume of 5 μL or 10 μL for each dilution was added to 100 μL or 200 μL cells, respectively (0.3% DMSO final) and incubated for live cell imaging.\nLive Cell Imaging on IncuCyte Zoom: Following incubation of cells with Compound 1, diluted Caspase 3/7 reagent (Essen Biosciences Cat no. 4440) is added to each well. […] Caspase-3/7 activation was quantified using the IncuCyte™ ZOOM basic analyzer. […]\nTwelve Red-labeled human AML cell lines, established as described above, were incubated with Compound 1 dose range (0 to 10 μM) and Red fluorescence or Object count was imaged over time, as described above. […]"}}, "note": "Read-outs that look alike come from different tables or passages of the source.", "data": [{"smiles": "O=C1CCC(N2Cc3cc(CNC(=O)C(F)(F)c4ccc(Cl)cc4)ccc3C2=O)C(=O)N1", "note": "(centres unmarked) [Compound 1, 2-(4-chlorophenyl)-N-((2-(2,6-dioxopiperidin-3-yl)-1-oxoisoindolin-5-yl)methyl)-2,2-difluoroacetamide]", "values": [{"measurement": "induction of apoptosis", "setting": "selected AML cell lines", "result": "marked induction of apoptosis"}, {"measurement": "EC50", "setting": "[1]; four moderately sensitive cell lines (TF-1, THP-1, SIG-M5, OCI-AML3), read-out: cell viability EC50 96hr (range)", "result": "58 to 186", "unit": "nM"}, {"measurement": "EC50", "setting": "[1]; four moderately sensitive cell lines, read-out: cell viability average EC50 96hr", "result": 121, "unit": "nM"}, {"measurement": "EC50", "setting": "[1]; seven highly sensitive cell lines (AML-193, ML-2, HL-60, KG-1, NOMO-1, MV-4-11, OCI-AML2), read-out: cell viability EC50 96hr (range)", "result": "2 to 40", "unit": "nM"}, {"measurement": "EC50", "setting": "[1]; seven highly sensitive cell lines, read-out: cell viability average EC50 96hr", "result": 15, "unit": "nM"}]}]}
